For assay [1], the target named is T1, KRas G12D (Homo sapiens (Human), UniProt P01116, G12D). The assay can be described thus: KRas G12D Binding Assay (TR-FRET displacement of Cy5 labelled tracer). The settings on record: GDP-loaded KRAS G12D (amino acids 1:169), 60 minute incubation at 22° C. The procedure:
After a 60 minute incubation at 22° C., the reaction was measured using a PerkinElmer EnVision multimode plate reader via TR-FRET dual wavelength detection, and the percent of control (POC) calculated using a ratiometric emission factor. […] The POC values were fit to a 4-parameter logistic curve and the IC50 value was determined as the concentration where the curve crosses 50 POC.
ND stands for “not determined.”
Target sequence in this assay (P01116 other isoform, or with tags, fused parts or gaps G12D): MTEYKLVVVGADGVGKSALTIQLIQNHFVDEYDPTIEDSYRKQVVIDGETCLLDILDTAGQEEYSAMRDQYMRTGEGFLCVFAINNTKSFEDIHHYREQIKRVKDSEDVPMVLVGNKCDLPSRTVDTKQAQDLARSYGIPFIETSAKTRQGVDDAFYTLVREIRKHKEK

The target in assay [2] is T1, KRas G12D. The assay can be described thus: KRas G12D Surface Plasmon Resonance (SPR) Binding Assay. The settings on record: Biacore T200, immobilized biotinylated KRAS protein, 1:1 binding model. Here is the method: Briefly, 1L of 1.05X HBS-Mg buffer (262.5 mM Bioultra Hepes, pH 7.5, 157.5 mM NaCl, 105 mM MgCl2, 0.525 mM TCEP, 0.0305% Brij-35) was prepared and filter sterilized using a 0.22 μm bottle top filter. Approximately 50 mL of 1.05X HBS-Mg buffer was removed and saved for future dilutions. A 50 mL aliquot of DMSO (Sigma Aldrich DMSO Lot. #SHBK2079) was added and continued to stir for 10 minutes, creating the final 1.0X HBS-Mg buffer (250 mM Bioultra Hepes pH 7.5, 150 mM NaCl, 100 mM MgCl2, 0.5 mM TCEP, 0.03% Brij-35).
Biacore T200 instrument was primed using 1.0X HBS-Mg buffer before docking a GE Streptavidin (SA) chip and then primed two additional times prior to beginning the immobilization step. All immobilized protein mixtures were created using 3-5 mg/mL Biotinylated Avidin-tagged KRAS protein using the following immobilization settings: SA chip type, 1 flow cells per cycle, 720 second contact time, and 5 ul/min flow rate. Normalization of the detector was also performed during the immobilization step using the GE BiaNormalize solution.
All compounds were diluted to 10 mM in 100% DMSO prior to being diluted 20X in 1.05X buffer. Another 10X dilution was created using 1.0X buffer prior to performing a series of 3X dilutions to create a compound concentration curve using the following assay settings: 20C analysis temperature, General Settings=10 Hz data collection rate and multi-detection; Assay Steps=all set to LMW kinetics; Cycle Types=LMW kinetics (60 s contact time, 120 s dissociation time, 100 ul/min flow rate, extra wash after injection with 50% DMSO, flow path 1,2,3,4); Flow path detection=2-1, 4-3). Data evaluation was performed using the Biacore T200 Evaluation software and data fit to 1:1 binding model. ND=not determined.
Target sequence in this assay (P01116-2 other isoform, or with tags, fused parts or gaps G12D): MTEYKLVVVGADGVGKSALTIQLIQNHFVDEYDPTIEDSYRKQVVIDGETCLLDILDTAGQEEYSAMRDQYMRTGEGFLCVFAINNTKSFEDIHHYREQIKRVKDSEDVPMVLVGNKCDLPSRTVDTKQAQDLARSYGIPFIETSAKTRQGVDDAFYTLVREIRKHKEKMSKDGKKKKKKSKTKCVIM

Take `Cc1nccn1CCOc1nc(N2CC3CCC(C2)N3)c2cnc(-c3cc(O)cc4ccccc34)c(F)c2n1` [Example 84, 4-(4-((1R,5S)-3,8-diazabicyclo[3.2.1]octan-3-yl)-8-fluoro-2-(2-(2-methyl-1H-imidazol-1-yl)ethoxy)pyrido[4,3-d]pyrimidin-7-yl)naphthalen-2-ol]: the IC50 at KRas G12D [1] was 0.0317 µM. For the same molecule, binding on KRas G12D [2] was put at a Kd of 0.0144 µM.

At KRas G12D [1], `CN(C)CCOc1nc(N2C[C@H]3CC[C@@H](C2)N3)c2cnc(-c3cccc4cccc(Cl)c34)c(F)c2n1` [Example 107, 2-((4-((I R,5S)-3,8-diazabicyclo[3.2.1]octan-3-yl)-7-(8-chloronaphthalen-1-yl)-8-fluoropyrido[4,3-d]pyrimidin-2-yl)oxy)-N,N-dimethylethan-1-amine] returned an IC50 of 2.12 µM. At KRas G12D [2], this molecule returned a dissociation constant Kd of 1.44 µM.

Molecule `Oc1cc(-c2ncc3c(N4C[C@H]5CC[C@@H](C4)N5)nc(OCC4(C(F)(F)F)CCCC4)nc3c2F)c2ccccc2c1` [Example 46, 4-(4-((1R,5S)-3,8-diazabicyclo[3.2.1]octan-3-yl)-8-fluoro-2-((1-(trifluoromethyl)cyclopentyl)methoxy)pyrido[4,3-d]pyrimidin-7-yl)naphthalen-2-ol] returned an IC50 on KRas G12D [1] of 0.721 µM. The molecule further showed a Kd at KRas G12D [2] of 0.798 µM.

On KRas G12D [1], `Fc1c(-c2cccc3cccc(Cl)c23)ncc2c(N3C[C@H]4CC[C@@H](C3)N4)nc(OC3CCc4[nH]ncc4C3)nc12` (stereo partly drawn) [Example 142, 4-((1R,5S)-3,8-diazabicyclo[3.2.1]octan-3-yl)-7-(8-chloronaphthalen-1-yl)-8-fluoro-2-((4,5,6,7-tetrahydro-1H-indazol-5-yl)oxy)pyrido[4,3-d]pyrimidine] showed an IC50 of 8.85 µM. In addition, on KRas G12D [2], binding was put at a Kd of 13.8 µM.

Regarding `Oc1cc(-c2ncc3c(N4C[C@H]5CC[C@@H](C4)N5)nc(OCCc4ccc(F)cn4)nc3c2F)c2ccccc2c1` [Example 102, 4-(4-((1R,5S)-3,8-diazabicyclo[3.2.1]octan-3-yl)-8-fluoro-2-(2-(5-fluoropyridin-2-yl)ethoxy)pyrido[4,3-d]pyrimidin-7-yl)naphthalen-2-ol], the IC50 at KRas G12D [1] worked out at 0.0958 µM. Further, binding on KRas G12D [2] was put at a Kd of 0.259 µM.

On to `Fc1c(-c2cccc3cccc(Cl)c23)ncc2c(N3CC4CC(F)C(C3)N4)nc(OC[C@@]34CCCN3C[C@H](F)C4)nc12` (some centres unmarked) [Example 396, 7-(8-chloronaphthalen-1-yl)-8-fluoro-4-(6-fluoro-3,8-diazabicyclo[3.2.1]octan-3-yl)-2-((2-fluorotetrahydro-1H-pyrrolizin-7a(5H)-yl)methoxy)pyrido[4,3-d]pyrimidine], for which the IC50 on KRas G12D [1] turned out to be 0.207 µM. Further, the Kd at KRas G12D [2] was 0.0348 µM.

Take `Fc1c(-c2cncc3cccc(Cl)c23)ncc2c(N3C[C@H]4CC[C@@H](C3)N4)nc(OCC34CCCN3CCC4)nc12` [Example 33, 4-((1R,5S)-3,8-diazabicyclo[3.2.1]octan-3-yl)-7-(5-chloroisoquinolin-4-yl)-8-fluoro-2-((tetrahydro-1H-pyrrolizin-7a(5H)-yl)methoxy)pyrido[4,3-d]pyrimidine bis(2,2,2-trifluoroacetate)]: the IC50 on KRas G12D [1] amounted to 0.0211 µM. This molecule yielded a Kd on KRas G12D [2] of 0.0717 µM.

At KRas G12D [1], `CN1CCC[C@H]1COc1nc(N2CC3CCC(C)(C2)N3)c2cnc(-c3cc(O)cc4ccccc34)c(F)c2n1` (stereo partly drawn) [Example 156, 4-(8-fluoro-4-(1-methyl-3,8-diazabicyclo[3.2.1]octan-3-yl)-2-(((S)-1-methylpyrrolidin-2-yl)methoxy)pyrido[4,3-d]pyrimidin-7-yl)naphthalen-2-ol bis(2,2,2-trifluoroacetate)] returned an IC50 of 0.0091 µM. In addition, at KRas G12D [2], the Kd came out at 500 µM.

In the case of `Oc1cc(-c2ncc3c(N4C[C@H]5CC[C@@H](C4)N5)nc(OCC4(C(F)(F)F)CC4)nc3c2F)c2ccccc2c1` [Example 51, 4-(4-((1R,5S)-3,8-diazabicyclo[3.2.1]octan-3-yl)-8-fluoro-2-((1-(trifluoromethyl)cyclopropyl)methoxy)pyrido[4,3-d]pyrimidin-7-yl)naphthalen-2-ol], the IC50 at KRas G12D [1] turned out to be 0.292 µM. This molecule showed a Kd on KRas G12D [2] of 0.611 µM.

Turning to `Cc1ccc2[nH]ncc2c1-c1ncc2c(N3C[C@H]4CC[C@@H](C3)N4)nc(OCCc3nccn3C)nc2c1F` [Example 88, 4-((1R,5S)-3,8-diazabicyclo[3.2.1]octan-3-yl)-8-fluoro-2-(2-(1-methyl-1H-imidazol-2-yl)ethoxy)-7-(5-methyl-1H-indazol-4-yl)pyrido[4,3-d]pyrimidine], the IC50 at KRas G12D [1] was 7.02 µM. Besides, binding at KRas G12D [2] was put at a Kd of 15.6 µM.

With `Cc1cccc2cccc(-c3ncc4c(N5C[C@H]6CC[C@@H](C5)N6)nc(OCCc5cccnc5)nc4c3F)c12` [Example 101, 4-((1R,5S)-3,8-diazabicyclo[3.2.1]octan-3-yl)-8-fluoro-7-(8-methylnaphthalen-1-yl)-2-(2-(pyridin-3-yl)ethoxy)pyrido[4,3-d]pyrimidine], the IC50 at KRas G12D [1] stood at 8.08 µM. Moreover, on KRas G12D [2], the equilibrium dissociation constant (Kd) is 12 µM.

Turning to `COCCN1CCC(Oc2nc(N3C[C@H]4CC[C@@H](C3)N4)c3cnc(-c4cccc5ccccc45)c(F)c3n2)CC1` [Example 39, 4-((1R,5S)-3,8-diazabicyclo[3.2.1]octan-3-yl)-8-fluoro-2-((1-(2-methoxyethyl)piperidin-4-yl)oxy)-7-(naphthalen-1-yl)pyrido[4,3-d]pyrimidine], the IC50 on KRas G12D [1] was more than 10 µM. The same molecule yielded a Kd at KRas G12D [2] of 67.8 µM.

The molecule `COc1ccc(CCOc2nc(N3C[C@H]4CC[C@@H](C3)N4)c3cnc(-c4cccc5cccc(Cl)c45)c(F)c3n2)cn1` [Example 86, 4-((1R,5S)-3,8-diazabicyclo[3.2.1]octan-3-yl)-7-(8-chloronaphthalen-1-yl)-8-fluoro-2-(2-(6-methoxypyridin-3-yl)ethoxy)pyrido[4,3-d]pyrimidine] had an IC50 at KRas G12D [1] of 7.92 µM. Also, at KRas G12D [2], the dissociation constant (Kd) is 528 µM.

On KRas G12D [1], `Oc1cc(-c2ncc3c(N4C[C@H]5CC[C@@H](C4)N5)nc(OC4CCSCC4)nc3c2F)c2ccccc2c1` [Example 79, 4-(4-((1R,5S)-3,8-diazabicyclo[3.2.1]octan-3-yl)-8-fluoro-2-((tetrahydro-2H-thiopyran-4-yl)oxy)pyrido[4,3-d]pyrimidin-7-yl)naphthalen-2-ol] came in with an IC50 of 0.337 µM. Further, on KRas G12D [2], the Kd is more than 1000 µM.

Regarding `CN1CCC[C@H]1COc1nc(N2CC3CCC(CCC#N)(C2)N3)c2cnc(-c3cc(O)cc4ccccc34)c(F)c2n1` (stereo partly drawn) [Example 157, 3-(3-(8-fluoro-7-(3-hydroxynaphthalen-1-yl)-2-(((S)-1-methylpyrrolidin-2-yl)methoxy)pyrido[4,3-d]pyrimidin-4-yl)-3,8-diazabicyclo[3.2.1]octan-1-yl)propanenitrile bis(2,2,2-trifluoroacetate)], on KRas G12D [1], the IC50 was found to be 0.0266 µM. Also, on KRas G12D [2], the dissociation constant (Kd) stood at 0.0229 µM.

`O=C(O)CCOc1nc(N2C[C@H]3CC[C@@H](C2)N3)c2cnc(-c3cccc4cccc(Cl)c34)c(F)c2n1` [Example 61, 3-((4-((1R,5S)-3,8-diazabicyclo[3.2.1]octan-3-yl)-7-(8-chloronaphthalen-1-yl)-8-fluoropyrido[4,3-d]pyrimidin-2-yl)oxy)propanoic acid compound with 2,2,2-trifluoroacetaldehyde] gave an IC50 at KRas G12D [1] of 4.08 µM. Moreover, the Kd at KRas G12D [2] was determined as 0.116 µM.

On to `OCC[C@@H](CO)Oc1nc(N2C[C@H]3CC[C@@H](C2)N3)c2cnc(-c3cccc4cccc(Cl)c34)c(F)c2n1` [Example 58, (S)-2-((4-((1R,5S)-3,8-diazabicyclo[3.2.1]octan-3-yl)-7-(8-chloronaphthalen-1-yl)-8-fluoropyrido[4,3-d]pyrimidin-2-yl)oxy)butane-1,4-diol], for which the IC50 at KRas G12D [1] is 2.33 µM. The Kd on KRas G12D [2] is 4.73 µM.

`O=S1(=O)CCC(Oc2nc(N3C[C@H]4CC[C@@H](C3)N4)c3cnc(-c4cc(O)cc5ccccc45)c(F)c3n2)CC1` [Example 71, 4-((4-((1R,5S)-3,8-diazabicyclo[3.2.1]octan-3-yl)-8-fluoro-7-(3-hydroxynaphthalen-1-yl)pyrido[4,3-d]pyrimidin-2-yl)oxy)tetrahydro-2H-thiopyran 1,1-dioxide] had an IC50 at KRas G12D [1] of 0.126 µM. On KRas G12D [2], this molecule showed a Kd of 0.138 µM.

In turn, `Cn1cncc1COc1nc(N2C[C@H]3CC[C@@H](C2)N3)c2cnc(-c3cc(O)cc4ccccc34)c(F)c2n1` [Example 95, 4-(4-((1R,5S)-3,8-diazabicyclo[3.2.1]octan-3-yl)-8-fluoro-2-((1-methyl-1H-imidazol-5-yl)methoxy)pyrido[4,3-d]pyrimidin-7-yl)naphthalen-2-ol] had an IC50 at KRas G12D [1] of 0.561 µM. Further, at KRas G12D [2], the Kd came out at 1.13 µM.
